Results from ChEMBL document CHEMBL3885861, “Open TG-GATES”.

Species on record: Rattus norvegicus
Assay: Open TG-GATES - Regimen: Daily Repeat
Assay type: toxicity, organism-based, Sprague-Dawley
Set-up: regimen Daily Repeat, gender Male, age 6 weeks
Conditions: in vivo, po, route gavage; for TBIL / TC / TG / TP / gamma-GTP / ALP / ALT / AST / BUN / CRE / Ca / Cl / DBIL / K / LDH / Na / PL / RALB / IP: tissue Plasma; for APTT / Bas / Eos / Fbg / Hb / Ht / Lym / MCH / MCHC / MCV / PT / Plat / RBC / Ret / WBC / Mono / Neu: tissue Blood; for LIVER: tissue Liver
[1] = 1 mg/kg, […], dose level Low, time 28 day
[2] = 3 mg/kg, 72 h, dose level Middle, time 3 day
[3] = 3 mg/kg, 72 h, tissue Kidney, dose level Middle, time 3 day
[4] = 3 mg/kg, […], dose level Middle, time 14 day
[5] = 3 mg/kg, […], dose level Middle, time 28 day
[6] = 3 mg/kg, […], tissue Kidney, dose level Middle, time 14 day
[7] = 3 mg/kg, […], tissue Kidney, dose level Middle, time 28 day
[8] = 10 mg/kg, 72 h, dose level High, time 3 day
[9] = 10 mg/kg, 72 h, tissue Kidney, dose level High, time 3 day
[10] = 10 mg/kg, […], dose level High, time 14 day
[11] = 10 mg/kg, […], dose level High, time 28 day
[12] = 10 mg/kg, […], tissue Kidney, dose level High, time 14 day
[13] = 10 mg/kg, […], tissue Kidney, dose level High, time 28 day

C#C[C@]1(O)CC[C@H]2[C@@H]3CCc4cc(O)ccc4[C@H]3CC[C@@]21C [ETHINYL ESTRADIOL]
TBIL [1]: 0.1 mg/dL | TC [1]: 50.6 mg/dL | TG [1]: 82 mg/dL | TP [1]: 6.8 g/dL | gamma-GTP [1]: 3.2 IU/L | TERMINAL_BW [2]: 201.7 g | APTT [2]: 22.6 s | Bas [2]: 0% | Eos [2]: 1% | Fbg [2]: 302.4 mg/dL | Hb [2]: 13.7 g/dL | Ht [2]: 40.3% | Lym [2]: 76.4% | MCH [2]: 20.9 pg | MCHC [2]: 34.1% | MCV [2]: 61.5 fL | PT [2]: 13.5 s | Plat [2]: 106.8 x10_4/uL | RBC [2]: 656.8 x10_4/ul | Ret [2]: 4.4% | WBC [2]: 75.4 x10_2/uL | KIDNEY_L [3]: 0.9 g | KIDNEY_R [3]: 1 g | LIVER [2]: 12.6 g | ALP [2]: 2898.2 IU/L | ALT [2]: 40.8 IU/L | AST [2]: 66.2 IU/L | BUN [2]: 9.8 mg/dL | CRE [2]: 0.2 mg/dL | Ca [2]: 10.5 mg/dL | Cl [2]: 108.2 meq/L | DBIL [2]: 0.038 mg/dL | K [2]: 4 meq/L | LDH [2]: 77.8 IU/L | Na [2]: 143.6 meq/L | PL [2]: 74.8 mg/dL | RALB [2]: 2.6 g/dL | TBIL [2]: 0.07 mg/dL | TC [2]: 24.8 mg/dL | TG [2]: 55.6 mg/dL | TP [2]: 5.6 g/dL | TERMINAL_BW [4]: 223.6 g | TERMINAL_BW [5]: 227.7 g | APTT [4]: 19.5 s | Bas [4]: 0% | Eos [4]: 1% | Fbg [4]: 316.6 mg/dL | Ht [4]: 37.1% | Lym [4]: 76.2% | MCH [4]: 20.2 pg | MCHC [4]: 36% | MCV [4]: 56.2 fL | Mono [4]: 2.2% | Neu [4]: 20% | PT [4]: 13.6 s | Plat [4]: 149.1 x10_4/uL | RBC [4]: 659.8 x10_4/ul | Ret [4]: 2.4% | WBC [4]: 96.9 x10_2/uL | APTT [5]: 24.1 s | Bas [5]: 0% | Fbg [5]: 301 mg/dL | Ht [5]: 37.2% | Lym [5]: 77.6% | MCH [5]: 18.7 pg | MCHC [5]: 36.1% | MCV [5]: 51.7 fL | Mono [5]: 2.2% | PT [5]: 14 s | Plat [5]: 110.2 x10_4/uL | RBC [5]: 719 x10_4/ul | Ret [5]: 2% | WBC [5]: 69.4 x10_2/uL | KIDNEY_L [6]: 1 g | KIDNEY_R [6]: 1 g | KIDNEY_TOTAL [6]: 2 g | KIDNEY_L [7]: 1 g | KIDNEY_R [7]: 1 g | LIVER [4]: 15.2 g | LIVER [5]: 13.8 g | ALP [4]: 2422.2 IU/L | ALT [4]: 39.2 IU/L | AST [4]: 55.4 IU/L | BUN [4]: 16.4 mg/dL | CRE [4]: 0.3 mg/dL | Cl [4]: 105.4 meq/L | DBIL [4]: 0.088 mg/dL | IP [4]: 6.2 mg/dL | LDH [4]: 88.2 IU/L | Na [4]: 143.8 meq/L | PL [4]: 126.8 mg/dL | RALB [4]: 3 g/dL | TBIL [4]: 0.2 mg/dL | TC [4]: 40.6 mg/dL | TG [4]: 76.4 mg/dL | TP [4]: 6.8 g/dL | gamma-GTP [4]: 4.4 IU/L | ALP [5]: 1503.2 IU/L | ALT [5]: 40.6 IU/L | AST [5]: 50.6 IU/L | BUN [5]: 14.8 mg/dL | CRE [5]: 0.2 mg/dL | Ca [5]: 10.8 mg/dL | Cl [5]: 105.2 meq/L | DBIL [5]: 0.062 mg/dL | IP [5]: 4.9 mg/dL | K [5]: 3.9 meq/L | LDH [5]: 51.4 IU/L | Na [5]: 143.6 meq/L | PL [5]: 134 mg/dL | RALB [5]: 3.1 g/dL | TBIL [5]: 0.1 mg/dL | TC [5]: 46.8 mg/dL | TG [5]: 59.2 mg/dL | TP [5]: 6.9 g/dL | gamma-GTP [5]: 9.8 IU/L | TERMINAL_BW [8]: 202.8 g | APTT [8]: 17.7 s | Bas [8]: 0.2% | Eos [8]: 1% | Fbg [8]: 289.4 mg/dL | Hb [8]: 13.2 g/dL | Ht [8]: 38.8% | Lym [8]: 81.8% | MCHC [8]: 34.2% | MCV [8]: 62.2 fL | Mono [8]: 4.8% | Neu [8]: 12% | Plat [8]: 114.3 x10_4/uL | RBC [8]: 623.8 x10_4/ul | Ret [8]: 4.8% | WBC [8]: 91.7 x10_2/uL | KIDNEY_L [9]: 1 g | KIDNEY_R [9]: 1 g | LIVER [8]: 13.9 g | ALP [8]: 2718.6 IU/L | ALT [8]: 40.8 IU/L | AST [8]: 63 IU/L | BUN [8]: 9.4 mg/dL | CRE [8]: 0.2 mg/dL | Ca [8]: 10.3 mg/dL | Cl [8]: 107.8 meq/L | DBIL [8]: 0.044 mg/dL | IP [8]: 7.8 mg/dL | K [8]: 4.3 meq/L | LDH [8]: 76.8 IU/L | PL [8]: 65.8 mg/dL | RALB [8]: 2.5 g/dL | TBIL [8]: 0.082 mg/dL | TC [8]: 23.2 mg/dL | TG [8]: 30.2 mg/dL | TP [8]: 5.3 g/dL | gamma-GTP [8]: 1 IU/L | TERMINAL_BW [10]: 202.6 g | TERMINAL_BW [11]: 211.1 g | APTT [10]: 20.6 s | Bas [10]: 0% | Eos [10]: 1% | Fbg [10]: 254 mg/dL | Hb [10]: 13.9 g/dL | Ht [10]: 39% | Lym [10]: 78.2% | MCH [10]: 20.6 pg | MCHC [10]: 35.7% | MCV [10]: 57.8 fL | Mono [10]: 2.6% | PT [10]: 14 s | Plat [10]: 122.3 x10_4/uL | RBC [10]: 675.2 x10_4/ul | Ret [10]: 0.9% | WBC [10]: 71.4 x10_2/uL | APTT [11]: 24.9 s | Bas [11]: 0% | Eos [11]: 0.6% | Fbg [11]: 258.6 mg/dL | Hb [11]: 12.4 g/dL | Ht [11]: 33.9% | Lym [11]: 78.6% | MCH [11]: 19 pg | MCHC [11]: 36.6% | MCV [11]: 51.7 fL | Mono [11]: 2% | Neu [11]: 18.2% | Plat [11]: 120.4 x10_4/uL | RBC [11]: 656.4 x10_4/ul | Ret [11]: 1.9% | WBC [11]: 61.3 x10_2/uL | KIDNEY_L [12]: 1 g | KIDNEY_R [12]: 1 g | KIDNEY_L [13]: 1 g | KIDNEY_R [13]: 1 g | LIVER [10]: 14.2 g | LIVER [11]: 15.1 g | ALP [10]: 2093.8 IU/L | AST [10]: 58.4 IU/L | BUN [10]: 15.4 mg/dL | CRE [10]: 0.2 mg/dL | Cl [10]: 104.6 meq/L | DBIL [10]: 0.074 mg/dL | IP [10]: 6.4 mg/dL | LDH [10]: 125.2 IU/L | Na [10]: 144.8 meq/L | PL [10]: 89.8 mg/dL | RALB [10]: 3.1 g/dL | TBIL [10]: 0.1 mg/dL | TC [10]: 28.4 mg/dL | TG [10]: 30.4 mg/dL | TP [10]: 7 g/dL | gamma-GTP [10]: 12.2 IU/L | ALP [11]: 1817.4 IU/L | ALT [11]: 61.6 IU/L | BUN [11]: 16.4 mg/dL | CRE [11]: 0.2 mg/dL | Cl [11]: 104.6 meq/L | DBIL [11]: 0.1 mg/dL | IP [11]: 5.8 mg/dL | LDH [11]: 94.4 IU/L | Na [11]: 145 meq/L | PL [11]: 118.6 mg/dL | RALB [11]: 3.3 g/dL | TBIL [11]: 0.3 mg/dL | TC [11]: 40 mg/dL | TG [11]: 60.2 mg/dL | TP [11]: 7.3 g/dL | gamma-GTP [11]: 19 IU/L
